The subject of series [1] is indomethacin-induced gastric irritation. Nature of the series: Rat model of indomethacin-induced gastric irritation. The format is in vivo, Sprague-Dawley rats. The procedure: Forty-five Sprague-Dawley rats (8-9 weeks-old, 227.6±6.30 g) were divided in three groups (P1, P2 and P3; n=9 each) to receive orally 0.5 mL/rat of the test treatments. Two control groups were studied as well. […] 15 minutes after the administration of the treatment, all animals were challenged with an oral administration of indomethacin (12.5 mg/kg) and sacrificed 4 hours later. Gastric mucosal injury was examined at a macroscopical and microscopical level. Macroscopic lesions were evaluated with Image J software. Microscopically, submucosal edema and microvascular injury were scored in H&E-stained preparations (Hematoxylin&Eosin-stained preparations). Measurements were blinded and performed by two independent observers and an inter-observer mean was calculated.

The next series relates to human patients. The conditions noted are these: humans; cited from earlier work.

As to “Sucrose octasulfate-aluminum complex [sucralfate]”, in series [1] (H&E-stained fundic sections, Placebo 1.53±0.077, significant vs Placebo), the “microvascular injury evaluation (score, mean±SEM)” value came out at 0.94±0.123. In series [1] (microscopic evaluation, H&E-stained fundic sections), the “histological sections of the fundic stomach (findings)” value is reported as “less severe lesions”. Moreover, in series [1] (oral 0.5 mL/rat 15 min before oral indomethacin 12.5 mg/kg, sacrificed 4 hours later, Placebo 1.37±0.260%, p<0.05 vs Placebo), the “percentage of hemorrhagic area related to the total gastric area (mean±SEM)” value was determined as 0.41±0.154%. Further, the “hemorrhagic area (mean±SEM)” value in series [1] (oral 0.5 mL/rat 15 min before oral indomethacin 12.5 mg/kg, sacrificed 4 hours later, Placebo 13.05±2.700, p<0.05 vs Placebo) is 4.28±1.495 mm^2. In addition, the “other adverse effects (xerostomia, nausea, vomiting, headache, urticaria, rashes), incidence in patients” value in the series with human patients is on record as 0-5%.

The values above are taken from US20260041707A1, “GASTROINTESTINAL PROTECTANT COMPOSITION” (BIOIBERICA, S.A.U., priority 2022, published 2026).
